“Also recorded” adds a separate entry of the source. Non-standard residues stand in square brackets, D forms with d. Residues, ends and D or L forms follow the SMILES beside them. *: point of attachment. 5FAM = O=C1OC2(c3ccc(O)cc3Oc3cc(O)ccc32)c2ccc(C(=O)*)cc21; Pro(cis-4-guanidino) = NC(N)=N[C@@H]1CN[C@H](C(=O)O)C1; Pro(4S-NH2) = N[C@@H]1CN[C@H](C(=O)O)C1; βAla = NCCC(=O)O
Key:
[1] = Peptide stability in culture medium containing 10% FBS (pre-incubation uptake and LC-MS); assay type: in vitro ADME; conditions: 0–24 h at 37 °C, then 2 hr with HeLa cells at 37 °C (1 μM, flow cytometry), and LC-MS analysis, 1–24 hr in culture medium containing 10% FBS
Description: Figure S8. (a) Cellular uptake of the peptides 1-5 after 1-24 h pre-incubation (peptide concentration: 1 µM). Values are the means ± standard deviation of three independent Figure 5b. Cellular uptake of the peptides 1-5 LC-MS analsisys. the stability of the peptides (1-24 hr) after 1-24 hr pre-incubation. in culture media containing 10% FBS using LC-MS. cultures. (b) The peptides’ stability (1-24 hr) analysis in culture medium containing FBS using LCCytotoxicity-MS. […]

[2] = system: HeLa cells; experiment: Time course of cellular uptake (1–24 hr); assay type: cell-based; conditions: 37 °C, 1 μM peptide; for stability in culture medium / cellular environment, as concluded from the uptake time course: culture medium containing fetal bovine serum (FBS)
Description: The results of the cytotoxicity analysis, in which HeLa cells were treated with peptides 1–5 for 24 hr at concentrations of 1, 4, and 8 μM, are shown in Fig. S9. […] Next, we investigated the intracellular uptake pathways of R9 and peptide 3. In the presence of various endocytosis inhibitors (amiloride, a macropinocytosis inhibitor[37]; nystatin, a caveolae-mediated endocytosis inhibitor[38]; and sucrose, a clathrin-mediated endocytosis inhibitor[39]), the migration levels of R9 and 3 into the HeLa cells were compared (Fig. S10). […] Then, we investigated the intracellular localization and dynamic behavior of R9 and 3 using fluorescence microscopy. The cells’ late endosomes/lysosomes were stained with LysoTracker Red (red), and their nuclei were stained with Hoechst 33342 (blue). […] As a general approach, peptides that can change their helical structures in accordance with pH fluctuations are often used to promote escape from endosomes. […] We considered that peptide 3 might also directly penetrate the cell membrane more efficiently than R9 (R9 passes through the cell membrane via not only endocytosis but also non-endocytosis pathway, that is, direct permeation to the cell membrane)[44]. Therefore, we investigated the intracellular uptake of peptide 3 at low temperature using flow cytometry and fluorescence microscopy. At low temperature, energy-dependent pathways such as endocytosis are inhibited so it is possible to assess direct peptide penetration via energy-independent pathways. […] Peptides that can directly penetrate through the cell membrane can be used for efficient intracellular delivery as they are not affected by problems associated with the need to escape from endosomes.
Figure 5 (a) Cellular uptake of the peptides 1–5 and R9 after 1–24 hr (peptide concentration: 1 μM). Values are the means ± standard deviation of three independent cultures. (b,c) Peptide 3 and R9 were colocalized with lysosome marker. HeLa cells were treated with 10 μM peptides at 37 °C for 2 hr. The acidic late endosomes/lysosomes were stained with LysoTracker Red (red), and the nuclei were stained with Hoechst 33342 (blue). The scale bars represent 50 μm.
HeLa, A549, Jurkat and CHO-K1 cells were seeded in 6-well dishes at a density of 4.0 × 10^6 cells/well and cultured in DMEM (HeLa, A549), RPMI-1640 (Jurkat) and Ham’s F-12 (CHO-K1) for 24 hr, respectively. The cells were treated with each peptide (peptide concentration; 1 μM) and incubated for each time (1, 2, 4, 8, 16 and 24 hr). Then, the cells were washed three times with phosphate buffer (PBS) supplemented with heparin (20 units/mL) and detached by treatment of trypsin-EDTA. […] Then, the collected cells were suspended in 500 μL of PBS buffer and mean fluorescence intensity in cells was measured by flow cytometer. […]

[3] = system: HeLa cells; experiment: Intracellular localization by fluorescence microscopy (endosomal escape); assay type: cell-based; conditions: 10 μM peptide, 37 °C, 15 min–2 hr, LysoTracker Red and Hoechst 33342 staining
Description: The results of the cytotoxicity analysis, in which HeLa cells were treated with peptides 1–5 for 24 hr at concentrations of 1, 4, and 8 μM, are shown in Fig. S9. […] Next, we investigated the intracellular uptake pathways of R9 and peptide 3. In the presence of various endocytosis inhibitors (amiloride, a macropinocytosis inhibitor[37]; nystatin, a caveolae-mediated endocytosis inhibitor[38]; and sucrose, a clathrin-mediated endocytosis inhibitor[39]), the migration levels of R9 and 3 into the HeLa cells were compared (Fig. S10). […] Then, we investigated the intracellular localization and dynamic behavior of R9 and 3 using fluorescence microscopy. The cells’ late endosomes/lysosomes were stained with LysoTracker Red (red), and their nuclei were stained with Hoechst 33342 (blue). […] As a general approach, peptides that can change their helical structures in accordance with pH fluctuations are often used to promote escape from endosomes. […] Therefore, we investigated the intracellular uptake of peptide 3 at low temperature using flow cytometry and fluorescence microscopy. […]
Figure S11. Fluorescence microscopy images of HeLa cells that had been treated with 10 µM of peptides [(a) peptide 3, (b) R9, (c) peptide 2] for 15 min-2 hr at 37 °C. […]
Figure S12. Fluorescence microscopy images of HeLa cells that had been treated with 10 µM of peptides [(a) R9, (b) peptide 3, (c) peptide 2] for 2 hr at 37 °C. […]

[4] = system: HeLa cells; experiment: Uptake in the presence of endocytosis inhibitors; assay type: cell-based; conditions: amiloride 25 μM, sucrose 0.4 M or nystatin 25 μg/mL, 1 μM peptide, 1 hr, flow cytometry
Description: The results of the cytotoxicity analysis, in which HeLa cells were treated with peptides 1–5 for 24 hr at concentrations of 1, 4, and 8 μM, are shown in Fig. S9. […] Next, we investigated the intracellular uptake pathways of R9 and peptide 3. In the presence of various endocytosis inhibitors (amiloride, a macropinocytosis inhibitor[37]; nystatin, a caveolae-mediated endocytosis inhibitor[38]; and sucrose, a clathrin-mediated endocytosis inhibitor[39]), the migration levels of R9 and 3 into the HeLa cells were compared (Fig. S10). […] Then, we investigated the intracellular localization and dynamic behavior of R9 and 3 using fluorescence microscopy. The cells’ late endosomes/lysosomes were stained with LysoTracker Red (red), and their nuclei were stained with Hoechst 33342 (blue). […] Therefore, we investigated the intracellular uptake of peptide 3 at low temperature using flow cytometry and fluorescence microscopy. […]
The cells were seeded onto 6-well culture plates (400,000 cells/well) and incubated overnight in 2 mL of DMEM containing 10% FBS. […] Then, fluorescence intensity in the cells was measured as above. […] Statistical differences were analyzed by Student’s t-test. […]
Figure S11. Fluorescence microscopy images of HeLa cells that had been treated with […]

In the case of `N=C(N)NCCC[C@H](NC(=O)CCNC(=O)c1ccc2c(c1)C(=O)OC21c2ccc(O)cc2Oc2cc(O)ccc21)C(=O)N[C@@H](CCCNC(=N)N)C(=O)N1CCC[C@H]1C(=O)N[C@@H](CCCNC(=N)N)C(=O)N[C@@H](CCCNC(=N)N)C(=O)N1CCC[C@H]1C(=O)N[C@@H](CCCNC(=N)N)C(=O)N[C@@H](CCCNC(=N)N)C(=O)N1CCC[C@H]1C(=O)NCC(=O)NCC(=O)NCC(N)=O` [peptide 1, FAM-β-Ala-(L-Arg-L-Arg-L-Pro)3-(Gly)3-NH2] (HELM PEPTIDE1{[O=C1OC2(c3ccc(O)cc3Oc3cc(O)ccc32)c2ccc(C(=O)[*:2])cc21].[bAla].R.R.P.R.R.P.R.R.P.G.G.G.[am]}$$$$V2.0), the “cell-penetrating ability and stability after pre-incubation in medium (in words)” value (shortened to “cell-penetrating ability and stability”) [1] is reported as “sharply fell as the pre-incubation time increased”.

For `N=C(N)NCCC[C@H](NC(=O)CCNC(=O)c1ccc2c(c1)C(=O)OC21c2ccc(O)cc2Oc2cc(O)ccc21)C(=O)N[C@@H](CCCNC(=N)N)C(=O)N1C[C@@H](N)C[C@H]1C(=O)N[C@@H](CCCNC(=N)N)C(=O)N[C@@H](CCCNC(=N)N)C(=O)N1C[C@@H](N)C[C@H]1C(=O)N[C@@H](CCCNC(=N)N)C(=O)N[C@@H](CCCNC(=N)N)C(=O)N1C[C@@H](N)C[C@H]1C(=O)NCC(=O)NCC(=O)NCC(N)=O` [peptide 2, FAM-β-Ala-(L-Arg-L-Arg-L-Pro^NH2)3-(Gly)3-NH2] ({5FAM-βAla}-RR[Pro(4S-NH2)]RR[Pro(4S-NH2)]RR[Pro(4S-NH2)]GGG-NH2), the “cell-penetrating ability and stability” value [1] was “more chemically stable than R9 and peptide 1”.

With `N=C(N)NCCC[C@H](NC(=O)CCNC(=O)c1ccc2c(c1)C(=O)OC21c2ccc(O)cc2Oc2cc(O)ccc21)C(=O)N[C@@H](CCCNC(=N)N)C(=O)N1C[C@@H](NC(=N)N)C[C@H]1C(=O)N[C@@H](CCCNC(=N)N)C(=O)N[C@@H](CCCNC(=N)N)C(=O)N1C[C@@H](NC(=N)N)C[C@H]1C(=O)N[C@@H](CCCNC(=N)N)C(=O)N[C@@H](CCCNC(=N)N)C(=O)N1C[C@@H](NC(=N)N)C[C@H]1C(=O)NCC(=O)NCC(=O)NCC(N)=O` [peptide 3, FAM-β-Ala-(L-Arg-L-Arg-L-Pro^Gu)3-(Gly)3-NH2] ({5FAM-βAla}-RR[Pro(cis-4-guanidino)]RR[Pro(cis-4-guanidino)]RR[Pro(cis-4-guanidino)]GGG-NH2) the “cell-penetrating ability and stability” value [1] was “more chemically stable than R9 and peptide 1; also recorded: remained stable in the medium containing FBS” and the “stability in culture medium / cellular environment, as concluded from the uptake time course” value [2] was “more stable than R9”.

In the case of `N=C(N)NCCC[C@H](NC(=O)CCNC(=O)c1ccc2c(c1)C(=O)OC21c2ccc(O)cc2Oc2cc(O)ccc21)C(=O)N[C@@H](CCCNC(=N)N)C(=O)N1C[C@@H](NC(=N)N)C[C@H]1C(=O)N1C[C@@H](NC(=N)N)C[C@H]1C(=O)N[C@@H](CCCNC(=N)N)C(=O)N[C@@H](CCCNC(=N)N)C(=O)N[C@@H](CCCNC(=N)N)C(=O)N[C@@H](CCCNC(=N)N)C(=O)N1C[C@@H](NC(=N)N)C[C@H]1C(=O)NCC(=O)NCC(=O)NCC(N)=O` [peptide 4, FAM-β-Ala-(L-Arg)2-(L-Pro^Gu)2-(L-Arg)4-L-Pro^Gu-(Gly)3-NH2] ({5FAM-βAla}-RR[Pro(cis-4-guanidino)][Pro(cis-4-guanidino)]RRRR[Pro(cis-4-guanidino)]GGG-NH2), the “stability in culture medium / cellular environment, as concluded from the uptake time course” value [2] is reported as “more stable than R9”.

In the case of nona-arginine [R9, reference compound], the “endosomal escape / localization (in words)” value [3] is reported as “co-localized with the late endosomes/lysosomes”, the “cell-penetrating ability and stability” value [1] is reported as “sharply fell as the pre-incubation time increased” and the “effect of endocytosis inhibitors on uptake (in words)” value [4] is reported as “decreased by treatment with amiloride or sucrose”. The “cellular uptake over incubation time (in words)” value ([2]; medium containing FBS, flow cytometry, three independent cultures) was “gradually decreased after 1-hr incubation” and the “stability in culture medium / cellular environment, as concluded from the uptake time course” value [2] was “unstable”.

Reference: publication PMC5016780, “Development of a Cell-penetrating Peptide that Exhibits Responsive Changes in its Secondary Structure in the Cellular Environment” (Scientific Reports, 2016)
